Inhibition and IC50 data for 29 compounds are collected here from patent publication US5120738A, “Pantothenic acid derivatives” (Fujirebio Inc., priority 1990, dated 1992).

One assay deals with T1, acyl CoA-cholesterol-acyltransferase (ACAT) (Rattus norvegicus, UniProt Q7TQM4).
T1 construct: a microsome fraction prepared from a rat liver; from tissue; host or cells: rat liver microsome fraction
T1 sequence (Q7TQM4 1-524): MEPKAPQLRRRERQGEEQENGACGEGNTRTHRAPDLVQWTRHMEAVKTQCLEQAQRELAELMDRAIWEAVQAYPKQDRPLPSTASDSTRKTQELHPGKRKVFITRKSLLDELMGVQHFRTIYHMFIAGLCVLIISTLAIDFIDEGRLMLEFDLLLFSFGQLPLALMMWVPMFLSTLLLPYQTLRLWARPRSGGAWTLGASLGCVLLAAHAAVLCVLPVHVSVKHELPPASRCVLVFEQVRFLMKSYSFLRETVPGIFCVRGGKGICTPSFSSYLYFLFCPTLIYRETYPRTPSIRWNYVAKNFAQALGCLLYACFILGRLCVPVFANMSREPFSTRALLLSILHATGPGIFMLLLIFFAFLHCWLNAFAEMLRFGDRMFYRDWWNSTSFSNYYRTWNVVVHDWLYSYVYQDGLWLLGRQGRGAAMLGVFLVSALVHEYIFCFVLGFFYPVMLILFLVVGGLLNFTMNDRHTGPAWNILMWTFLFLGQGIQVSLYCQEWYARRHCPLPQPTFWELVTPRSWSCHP
In words: ACAT inhibition test (cholesteryl oleate formed from [1-14C]oleoylCoA, rat liver microsome fraction). It is filed as biochemical. Conditions: 10^-6 M test drug, 37° C., 4 minutes, relative to control without test compound. On the procedure: ACAT inhibition tests were carried out by measuring cholesteryl oleate produced from [1-^14 C]oleoylCoA and endocellular cholesterol similarly to the method of Helgerud et al. [cf.
Thereafter, 4.2 ml of methanol and 8.3 ml of chloroform were added to the reaction mixture to stop the reaction. Then, 2.5 ml of water was added and after shaking the mixture sufficiently a chloroform layer was separated. After concentrating it, the chloroform layer was subjected to thin layer chromatography. The cholesteryl oleate formed was separated and its radioactivity was measured by a liquid scientilaltion counter.
On the other hand, the same tests as above were repeated without using test compounds. The radioactivity of the control thus obtained was used as a standard for calculating the ACAT inhibiting activity of each test compound.
Background: Liver microsomes are a subcellular fraction often used to study metabolism.
Usually inhibition stands for the drop in the measured response relative to a control, in per cent. Lower therefore signals a response near the control. `CCCCCCCC/C=C\CCCCCCCC(=O)N1CCCC(NC(=O)CCNC(=O)C2OC(C)(C)OCC2(C)C)C1` (single isomer, unassigned) [Example 171] returned an inhibition at 1 µM of 61.1%. The same measure, in the same setting: the same measure for `CCCCCCCC/C=C\CCCCCCCC(=O)Nc1ccccc1NC(=O)CCNC(=O)C(OC(C)=O)C(C)(C)COC(C)=O` (stereo not drawn) [Example 2, N-[2-(Oleoylamino)phenyl]-3-[N-(2,4-diacetoxy-3,3-dimethyl-1-oxobutyl)amino]propanamide]: 64.8%; for `CCCCC/C=C\C/C=C\CCCCCCCC(=O)Nc1ccccc1NC(=O)CCNC(=O)C1OC(C)(C)OCC1(C)C` (stereo not drawn) [Example 4, N-2-(Linoleoylamino)phenyl]-3-[[N-(2,2,5,5-tetramethyl-1,3-dioxane-4-carbonyl)amino]propanamide]: 79.8%. For `CC/C=C\C/C=C\C/C=C\CCCCCCCC(=O)Nc1ccccc1NC(=O)CCNC(=O)C1OC(C)(C)OCC1(C)C` (stereo not drawn) [Example 5], testing at 1 µM gave an inhibition of 56%. In the case of `CCCCC/C=C\C/C=C\CCCCCCCC(=O)Nc1cccc(NC(=O)CCNC(=O)C2OC(C)(C)OCC2(C)C)c1` (stereo not drawn) [Example 9, [N-3-(Linoleylamino)phenyl]-3-[N-(2,2,5,5-tetramethyl-1,3-dioxane-4-carbonyl)amino]propanamide], 1 µM produced 51.8% inhibition.

Regarding `CCCCCCCC/C=C\CCCCCCCC(=O)Nc1ccccc1OC(=O)CCNC(=O)C1OC(C)(C)OCC1(C)C` (stereo not drawn) [Example 15, 2-(Oleoylamino)phenyl 3-[N-(2,2,5,5-tetramethyl-1,3-dioxane-4-carbonyl)amino]propionate], at 1 µM the inhibition was 79.6%. For the compound `CCCCCCCC/C=C\CCCCCCCC(=O)NC[C@@H]1CCCN1C(=O)CCNC(=O)C(O)C(C)(C)CO` (stereo partly drawn) [Example 166], the inhibition at 1 µM came out at 65.7%. Still for that read-out and setting: under `CCCCCCCC/C=C\CCCCCCCC(=O)NC[C@H]1CCCN1C(=O)CCNC(=O)C1OC(C)(C)OCC1(C)C` (stereo partly drawn) [Example 167] stands 64%; under `CCCCCCCC/C=C\CCCCCCCC(=O)NC1CCCN(C(=O)CCNC(=O)C2OC(C)(C)OCC2(C)C)C1` (stereo not drawn) [Example 168], 75.7%; under `CCCCCCCC/C=C\CCCCCCCC(=O)NC1CCCN(C(=O)CCNC(=O)C(O)C(C)(C)CO)C1` (stereo not drawn) [Example 169], 58.3%. The same measure, in the same setting: under `CCCCCCCC/C=C\CCCCCCCC(=O)N1CCN(C(=O)CCNC(=O)C(O)C(C)(C)CO)CC1` (stereo not drawn) [Example 193] stands 18.9%. The same measure, in the same setting: under `CCCCCCCC/C=C\CCCCCCCC(=O)N1CCCN(C(=O)CCNC(=O)C(OC(C)=O)C(C)(C)COC(C)=O)CC1` (stereo not drawn) [Example 194, 1-Oleoyl-4-(1-oxo-3-N-(1-oxo-2,4-diacetoxy-3,3-dimethylbutyl)aminopropyl)tetrahydro-1,4-diazepine] stands 62.6%.

Compound `CCCCCCCC/C=C\CCCCCCCC(=O)N1CCCN(C(=O)CCNC(=O)C(O)C(C)(C)CO)CC1` (stereo not drawn) [Example 195] showed an inhibition at 1 µM of 48.7%. Still for that read-out and setting: the same measure for `CCCCCCCCC=CCCCCCCCNC(=O)N1CCN(C(=O)CCNC(=O)C2OC(C)(C)OCC2(C)C)CC1` (stereo not drawn) [Example 198]: 84.3%; for `CCCCCCCCCCC(C)C(=O)N1CCN(C(=O)CCNC(=O)C2OC(C)(C)OCC2(C)C)CC1` (stereo not drawn) [Example 199]: 53.7%.

The same assay, now with this note: in square brackets behind the % inhibition, range in parentheses not explained, read-out: ACAT inhibition [IC50 × 10^-7 M].
As usually defined, the IC50 is the midpoint of a concentration-inhibition curve. Regarding `CCCCCCCC/C=C\CCCCCCCC(=O)Nc1ccccc1NC(=O)CCNC(=O)C1OC(C)(C)OCC1(C)C` (stereo not drawn) [Example 1, N-[2-(Oleoylamino)phenyl]-3-[N-(2,2,5,5-tetramethyl-1,3-dioxane-4-carbonyl)amino]propanamide], the half-maximal inhibitory concentration (IC50) came out at 295 nM. The same measure, in the same setting: the same measure for `CCCCCCCC/C=C\CCCCCCCC(=O)Nc1ccccc1NC(=O)CCNC(=O)C(OC(C)=O)C(C)(C)COC(C)=O` (stereo not drawn) [Example 2, N-[2-(Oleoylamino)phenyl]-3-[N-(2,4-diacetoxy-3,3-dimethyl-1-oxobutyl)amino]propanamide]: 274 nM; for `CCCCCCCC/C=C\CCCCCCCC(=O)NCCNC(=O)CCNC(=O)C1OC(C)(C)OCC1(C)C` (stereo not drawn) [Example 33]: 299 nM. On the same count and under the same terms, the same measure for `CCCCCCCC/C=C\CCCCCCCC(=O)NCCCNC(=O)CCNC(=O)C1OC(C)(C)OCC1(C)C` (stereo not drawn) [Example 34]: 385 nM; for `CCCCCCCC/C=C\CCCCCCCC(=O)NCCCCNC(=O)CCNC(=O)C1OC(C)(C)OCC1(C)C` (stereo not drawn) [Example 37, N-(4-Oleoylaminobutyl)-3-[N-(2,2,5,5-tetramethyl-1,3-dioxane-4-carbonyl)amino]propanamide]: 286 nM. Same read-out and setting: under `CCCCCCCC/C=C\CCCCCCCC(=O)NCCOC(=O)CCNC(=O)C1OC(C)(C)OCC1(C)C` (stereo not drawn) [Example 44, 2-(N-Oleoylamino)ethyl 3-[N-(2,2,5,5-tetramethyl-1,3-dioxane-4-carbonyl)amino]propionate] stands 686 nM; under `CCCCCCCC/C=C\CCCCCCCC(=O)NCCCOC(=O)CCNC(=O)C1OC(C)(C)OCC1(C)C` (stereo not drawn) [Example 47, 3-(N-oleoylamino]propyl 3-[N-(2,2,5,5-tetramethyl-1,3-dioxane-4-carbonyl)amino]propionate], 250 nM. As for `CCCCCCCC/C=C\CCCCCCCC(=O)NCCCCCOC(=O)CCNC(=O)C1OC(C)(C)OCC1(C)C` (stereo not drawn) [Example 66], the IC50 was 355 nM. For the compound `CCCCCCCC/C=C\CCCCCCCC(=O)NCCCCCCOC(=O)CCNC(=O)C1OC(C)(C)OCC1(C)C` (stereo not drawn) [Example 67], the IC50 was 389 nM. `CCCCCCCC/C=C\CCCCCCCC(=O)N[C@H]1CCCC[C@@H]1NC(=O)CCNC(=O)C1OC(C)(C)OCC1(C)C` (stereo partly drawn) [Example 70, N-[(1S,2S)-2-(Oleoylamino)cyclohexane]-3-[N-(2,2,5,5-tetramethyl-1,3-dioxane-4-carbonyl)amino]propanamide]: the IC50 was determined as 162 nM. The same measure, in the same setting: under `CCCCCCCC/C=C\CCCCCCCC(=O)N[C@H]1CCCC[C@@H]1NC(=O)CCNC(=O)[C@H](OC(C)=O)C(C)(C)COC(C)=O` [Example 71] stands 198 nM; under `CCCCCCCC/C=C\CCCCCCCC(=O)N[C@H]1CCCC[C@@H]1NC(=O)CCNC(=O)[C@H](O)C(C)(C)CO` [Example 74, N-[(1S,2S)-2-(Oleoylamino)cyclohexane-1-yl]-3-[N-[(2R)-2,4-dihydroxy-3,3-dimethyl-1-oxobutyl]amino]propanamide], 155 nM; under `CCCCCCCC/C=C\CCCCCCCC(=O)N[C@@H]1CCCC[C@H]1OC(=O)CCNC(=O)C1OC(C)(C)OCC1(C)C` (stereo partly drawn) [Example 77, (1R,2R)-2-(Oleoylamino)cyclohexane-1-yl 3-[N-(2,2,5,5-tetramethyl-1,3-dioxane-4-carbonyl)amino]propionate], 210 nM.

As for `CCCCCCCC/C=C\CCCCCCCC(=O)N[C@H]1CCCC[C@@H]1OC(=O)CCNC(=O)C1OC(C)(C)OCC1(C)C` (stereo partly drawn) [Example 78, (1S,2S)-2-(Oleoylamino)cyclohexane-1-yl 3-[N-(2,2,5,5-tetramethyl-1,3-dioxane-4-carbonyl)amino]propionate], the IC50 turned out to be 40.1 nM. Same read-out and setting: the same measure for `CCCCC/C=C\C/C=C\CCCCCCCC(=O)N[C@H]1CCCC[C@@H]1OC(=O)CCNC(=O)C1OC(C)(C)OCC1(C)C` (stereo partly drawn) [Example 80, (1S,2S)-2-(Linoleoylamino)cyclohexane-1-yl 3-[N-(2,2,5,5-tetramethyl-1,3-dioxane-4-carbonyl)amino]propionate]: 108 nM.
